# According to patent US20060052399A1, “Oxazolidinone derivatives as antibacterial agents” (AstraZeneca AB, priority 2002, published 2006):
# Experiments:
# Type in all cases: cell-based
# Streptococcus pneumoniae = assay: MIC by agar dilution, Streptococcus pneumoniae; details: agar with 5% defibrinated horse blood, 10^4 CFU/spot, 37° C., 5% carbon dioxide, 48 hours
# Procedure: (§1) The following results were obtained on a standard in-vitro test system. The activity is described in terms of the minimum inhibitory concentration (MIC) determined by the agar-dilution technique with an inoculum size of 10^4 CFU/spot. Typically, compounds are active in the range 0.01 to 256 μg/ml.
# (§2) Streptococci and enterococci were tested on agar supplemented with 5% defibrinated horse blood, an inoculum of 10^4 CFU/spot and an incubation temperature of 37° C. in an atmosphere of 5% carbon dioxide for 48 hours—blood is required for the growth of some of the test organisms. Fastidious Gram negative organisms were tested in Mueller-Hinton broth, supplemented with hemin and NAD, grown aerobically for 24 hours at 37° C., and with an innoculum of 5×10^4 CPU/well.
# [1] = system: Staphylococcus aureus MSQS (methicillin sensitive and quinolone sensitive); assay: MIC by agar dilution, Staphylococcus aureus MSQS; details: 10^4 CFU/spot, 37° C., 24 hours
# Procedure: as §1
# (§3) Staphylococci were tested on agar, using an inoculum of 10^4 CFU/spot and an incubation temperature of 37° C. for 24 hours—standard test conditions for the expression of methicillin resistance.
# [2] = system: Staphylococcus aureus MRQR (methicillin resistant and quinolone resistant); assay: MIC by agar dilution, Staphylococcus aureus MRQR; details: 10^4 CFU/spot, 37° C., 24 hours
# Procedure: as §1, §3
# Moraxella catarrhalis = assay: MIC in Mueller-Hinton broth, Moraxella catarrhalis; details: Mueller-Hinton broth with hemin and NAD, aerobic, 24 hours, 37° C.
# Procedure: as §1, §2
# [3] = system: Linezolid Reistant Streptococcus pneumoniae; assay: MIC by agar dilution, linezolid resistant Streptococcus pneumoniae; details: agar with 5% defibrinated horse blood, 10^4 CFU/spot, 37° C., 5% carbon dioxide, 48 hours
# Procedure: as §1, §2
# Enterococcus faecium = assay: MIC by agar dilution, Enterococcus faecium; details: agar with 5% defibrinated horse blood, 10^4 CFU/spot, 37° C., 5% carbon dioxide, 48 hours
# Procedure: as §1, §2
# Haemophilus influenzae = assay: MIC in Mueller-Hinton broth, Haemophilus influenzae; details: Mueller-Hinton broth with hemin and NAD, aerobic, 24 hours, 37° C.
# Procedure: as §1, §2
structure (smiles),measurement,setting,value
"Cn1nnnc1-c1ccc(-c2ccc(N3CC(CNC(=O)C4CC4)OC3=O)cc2F)cn1 (stereo in doubt) [Example 2, N-[[(5R)-3-[3-Fluoro-4-[6-(1-methyl-1H-1,2,3,4-tetrazol-5-yl)-3-Pyridinyl]phenyl]oxazolidin-2-on-5-yl]methyl]cycloproanecarboxamide]",MIC,Streptococcus pneumoniae,0.5 µg/mL
same,MIC,[1],2 µg/mL
same,MIC,[2],2 µg/mL
same,MIC,Moraxella catarrhalis,0.5 µg/mL
same,MIC,[3],4 µg/mL
same,MIC,Enterococcus faecium,1 µg/mL
same,MIC,Haemophilus influenzae,> 64 µg/mL
